The text below walks through data of publication PMC12040169 (PLOS Biology, 2025).

The data set in a line: in vitro. The settings on record: human, hela cells, % viability.

As to `O=C(NC1CCCCC1)c1s/c(=N/O)nnc1Nc1ccccc1` [CBK022275], the viability (as a rule, a read-out of living cells in per cent, often relative to untreated cells) at 28.5 h, 10 µM was determined as 93.8%.
Next, `CNC(=O)C1/C(=N\O)c2ccccc2N1C(C)=O` (stereo not drawn) [CBK006569]: 114%.
Next, `Cc1nn(-c2ccccc2)c(O)c1Cc1c(Cl)cccc1Cl` [CBK067760]: 98.1%; `CSc1nnc(Cc2nnc(SC)n2-c2ccccc2)n1-c1ccccc1` [CBK267145]: 105%.
For the compound `CC(C)CC(=O)N1CCN(C(=O)c2ccc(F)cc2)CC1` [CBK003603], the viability at 28.5 h, 10 µM stood at 91.1%.
Next, `Cc1cccc(-c2ncc(C(=O)NCCCN3CCCC3=O)cc2-c2ccco2)c1` [CBK037455]: 96.5%; `Cc1nc(-c2ccc(NCC(O)c3ccco3)nc2)[nH]c(=O)c1C` (stereo not drawn) [CBK305254]: 94.6%; `CN(C)c1nc(N(C)C)nc(N(C#N)S(=O)(=O)c2ccccc2Cl)n1` [CBK269036]: 88.3%.
Next, `Cc1nc(-c2ccccc2F)sc1C(=O)Nc1ccccn1` [CBK287979]: 98.8%; `O=C(O)Cc1sc(-c2ccc3c(c2)OCO3)nc1-c1ccccc1` [CBK200114]: 87.3%; `CS(=O)(=O)N1CC2(CCN(C(=O)N(CCN)CCc3ccc(Cl)cc3)CC2)c2ccccc21` [CBK001687C]: 111%.
Next, `Cc1cccc(-c2ocnc2C(=O)NC(C)c2ccccn2)c1` (stereo not drawn) [CBK282427]: 87.4%; `COCCN(CCOC)Cc1c(C)nc2c(C)c(C)ccc2c1O` [CBK265031]: 102%.
`Cc1ccc(NC(=O)N(C)C2CCN(C)C2)cc1` (stereo not drawn) [CBK156023]: the viability at 28.5 h, 10 µM is 103%.
Next, `COC(=O)c1ccc(NC(=O)c2c(Br)c(Br)c(Br)c(Br)c2C(=O)O)cc1` [CBK261321]: 100%; `COc1ccccc1CN(Cc1cccnc1)C(=O)CCn1cnnn1` [CBK307106]: 90.4%; `O=C(O)C(c1c[nH]c2ccccc12)N1CCN(Cc2ccncc2)CC1` (stereo not drawn) [CBK286624]: 76.2%.
Next, `CCCn1c(C)cc2cc(NC(=O)Cn3cc(C)nn3)ccc21` [CBK281548]: 104%.
Under `O=C1CC(c2cccs2)Sc2nc3ccccc3n21` (stereo not drawn) [CBK091627] stands 110%; under `O=C(Nc1ccc(F)c(Cl)c1)c1cccnc1Sc1cccs1` [CBK057512], 89%; under `COc1ccc(C(=O)N[C@@H]2CN(Cc3ccc(CO)o3)CCC[C@H]2O)cc1` [CBK289067], 89.8%.
`O=C1CC(c2noc(-c3ccncc3)n2)CN1c1ccccc1` (stereo not drawn) [CBK288043]: the viability at 28.5 h, 10 µM was 85.4%.
`O=C(CN(c1cccc(Cl)c1)S(=O)(=O)c1ccccc1)Nc1cccc2cccnc12` [CBK263270]: the viability at 28.5 h, 10 µM was 87.9%.
Under `Cc1ccc(NC(=O)COc2ccccc2)c(NC(=O)c2ccccc2I)c1` [CBK266793] stands 98.2%.
Under `Nc1cccc(-c2ccc(NCc3cc(F)c(F)c(F)c3)nc2)c1` [CBK036985] stands 97.2%; under `COC(=O)c1ccc(N2CCN(Cc3nc(C4CC4)no3)C(C)C2)cc1` (stereo not drawn) [CBK305744], 98%; under `O=C(Nc1ccc(Cl)cc1)NC1(C(=O)NCc2ccncc2)CCCCC1` [CBK174259], 100%.
Under `O=C(Nc1sc2c(c1C(=O)NCCc1ccccc1)CCC2)c1sc2ccccc2c1Cl` [CBK266379] stands 105%; under `O=C(C1CC1)N1CCC(C(=O)N(Cc2ccco2)c2ccccc2)CC1` [CBK298269], 85.8%; under `COc1cc(Nc2cc(-c3ccccc3N(C)C)ncn2)cc(OC)c1OC` [CBK090702], 64.2%.
In the case of `CC(C)(c1ccc(OC(=O)c2ccc(N)cc2)cc1)c1ccc(OC(=O)c2ccc(N)cc2)cc1` [CBK260962], the viability at 28.5 h, 10 µM was 91.2%.
Under `COc1ccc(C(C)NC2CCN(c3ccccn3)CC2)cc1F` (stereo not drawn) [CBK304146] stands 86.8%; under `O=C(Cn1cccc2cc(C3CCNCC3)nc1-2)N1CCCC1` [CBK284680], 98%.
Under `O=C(NCc1ccc2c(c1)OCO2)C1(c2ccccc2)CCCC1` [CBK149530] stands 89.8%; under `Ic1ccc2c3ccc(I)cc3c3[nH]c(-c4ccccc4)nc3c2c1` [CBK261218], 92.9%.
Under `CCNC(=O)N1CCCC(Cc2ccc(F)cc2F)(C(=O)OCC)C1` (stereo not drawn) [CBK306734] stands 81.9%; under `Cc1cccc(-c2csc3c(=O)[nH]c(N4CCC(C(=O)N5CCOCC5)CC4)nc23)c1` [CBK215644], 89.7%.
Regarding `Cc1ccc(S(=O)(=O)OCCOS(=O)(=O)c2ccc(C)cc2)cc1` [CBK260986], the viability at 28.5 h, 10 µM was found to be 96.2%.
Under `CC(C)(C)OC(=O)N[C@@H](Cc1ccccc1)C(=O)NC[C@H]1CC[C@H](C(=O)O)CC1` [CBK286719] stands 81.9%; under `c1cncc(-c2cncc(NCc3ccc4c(c3)OCO4)n2)c1` [CBK065313], 94.6%.
With `CNC(=O)NC(=O)CN1CCC(CNc2ncccc2C#N)C1` (stereo not drawn) [CBK306126], the viability at 28.5 h, 10 µM stood at 77.4%.
Next, `Cc1nc2c(OCc3ccc(F)c(F)c3)cccn2c1N(C)CC1CC1` [CBK147276]: 91.9%; `CCS(=O)(=O)N1CCC2(C=Cc3cc(F)ccc3O2)CC1` [CBK284747]: 104%.
Next, `CCC(C)C(=O)O[C@H]1C[C@@H](C)C=C2C=C[C@H](C)[C@H](CC[C@@H]3C[C@@H](O)CC(=O)O3)[C@H]21` (stereo partly drawn) [CBK011646]: 85.2%; `CN(C)CC(O)c1cc2n(n1)CCCN(CC(=O)NCc1cccs1)C2` (stereo not drawn) [CBK306738]: 91.6%.
Under `Cn1c(NC(=O)CSc2nnc(Cc3cccc4ccccc34)o2)cc(=O)n(C)c1=O` [CBK266055] stands 115%; under `Cc1nnc(Sc2ncccc2C(F)(F)F)s1` [CBK115211], 87.7%.
As to `CCOc1ccc(S(=O)(=O)N2CCC(C(=O)O)CC2)cc1Cl` [CBK269759], the viability at 28.5 h, 10 µM is 97.4%.
Under `CCOC(=O)N1N=C(c2ccc(F)cc2)CC1(O)C(F)(F)F` (stereo not drawn) [CBK027156] stands 111%; under `Cc1ccc(S(=O)(=O)NCC(=O)N2CCN(c3ccc(Cl)cc3)CC2)cc1` [CBK091315], 93.3%.
Next, `CCn1c(N2CCC(C(=O)NCC3CC3)CC2)nc2ccccc21` [CBK283983]: 104%; `COc1cccc(CN2CCN(C(=O)c3ccco3)CC2)c1OC` [CBK074380]: 87.4%; `Cc1nc(-c2cccs2)cc([C@H]2CN3CC[C@H]2C[C@@H]3CNC(=O)c2ccco2)n1` [CBK289127]: 86.9%.
Under `OCC1CCCN1c1cncc(-c2ccc(F)cc2F)n1` (stereo not drawn) [CBK065891] stands 112%.
Consider `CCn1cc(-c2cncn2CCOc2ccc(C)cc2)cn1` [CBK281623], for which the viability at 28.5 h, 10 µM was found to be 88.5%.
Under `O=C(O)C1Cc2ccccc2C(=O)N1CCc1ccccc1` (stereo not drawn) [CBK286592] stands 87.4%; under `CN(C(=O)CSc1ncccc1C#N)c1ccccc1` [CBK288044], 98.3%.
